Assay results: ChEMBL document CHEMBL1201862, “PubChem BioAssay data set” (2004)
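Growth conditions: 96-well plates. Treatment: test compound, 48 hours, 5 concentrations. Analysis: linear interpolation between bracketing concentrations; unreached endpoints set to highest concentration. The concentration for 50% growth inhibition is given as GI50.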 The source made the active and inactive calls. No stated cut-off is given here; in the data, active = GI50 up to about 1.1 µM and inactive = higher.

How the values were obtained:
Assay in all cases: NCI-60 cell line screen, 48 h
ACHN = tested on: ACHN
CAKI-1 = tested on: CAKI-1
HCT-116 = tested on: HCT-116
HT-29 = tested on: HT-29
MCF7 = tested on: MCF7
MOLT-4 = tested on: MOLT-4
OVCAR-4 = tested on: OVCAR-4
OVCAR-5 = tested on: OVCAR-5
PC-3 = tested on: PC-3
SF-539 = tested on: SF-539
SK-MEL-28 = tested on: SK-MEL-28
SK-MEL-2 = tested on: SK-MEL-2
SK-MEL-5 = tested on: SK-MEL-5
SN12C = tested on: SN12C
SNB-19 = tested on: SNB-19
SW-620 = tested on: SW-620
TK-10 = tested on: TK-10
UO-31 = tested on: UO-31
K562 = tested on: K562
A498 = tested on: A498

Structure (SMILES) | GI50 (ACHN) | GI50 (CAKI-1) | GI50 (HCT-116) | GI50 (HT-29) | GI50 (MCF7) | GI50 (MOLT-4) | GI50 (OVCAR-4) | GI50 (OVCAR-5) | GI50 (PC-3) | GI50 (SF-539) | GI50 (SK-MEL-28) | GI50 (SK-MEL-2) | GI50 (SK-MEL-5) | GI50 (SN12C) | GI50 (SNB-19) | GI50 (SW-620) | GI50 (TK-10) | GI50 (UO-31) | GI50 (K562) | GI50 (A498)
Cc1cnc2sn(-c3ccc(Br)cc3)c(=O)c2c1 | 35.6 µM (inactive) | 16.7 µM (inactive) | 42.8 µM (inactive) | 28.9 µM (inactive) | 30.3 µM (inactive) | 30.4 µM (inactive) | 26.2 µM (inactive) | 44.2 µM (inactive) | 36.6 µM (inactive) | 31.3 µM (inactive) | 27.7 µM (inactive) | > 100 µM (inactive) | 42.6 µM (inactive) | 59.6 µM (inactive) | 40.9 µM (inactive) | 28.6 µM (inactive) | 93.5 µM (inactive) | 43.9 µM (inactive) | – | –
C[C@@H]1S[C@H](c2c(F)cccc2Cl)n2c1nc1ccccc12 | 27.9 µM (inactive) | 8.43 µM (inactive) | 4.49 µM (inactive) | 14.7 µM (inactive) | 25.2 µM (inactive) | 5.04 µM (inactive) | 18.5 µM (inactive) | 33.4 µM (inactive) | 6.84 µM (inactive) | 15 µM (inactive) | 13.7 µM (inactive) | 15.7 µM (inactive) | – | 15.6 µM (inactive) | 26.4 µM (inactive) | 13.7 µM (inactive) | 28.5 µM (inactive) | 11.9 µM (inactive) | 4.4 µM (inactive) | –
CC(=O)N(C)CCc1c[nH]c2ccccc12 | > 100 µM (inactive) | > 100 µM (inactive) | > 100 µM (inactive) | > 100 µM (inactive) | > 100 µM (inactive) | > 100 µM (inactive) | > 100 µM (inactive) | > 100 µM (inactive) | > 100 µM (inactive) | > 100 µM (inactive) | > 100 µM (inactive) | > 100 µM (inactive) | > 100 µM (inactive) | > 100 µM (inactive) | > 100 µM (inactive) | > 100 µM (inactive) | > 100 µM (inactive) | > 100 µM (inactive) | > 100 µM (inactive) | –
Cc1nn(C(=O)Cc2ccccc2)c2c1C(c1ccccc1[N+](=O)[O-])SC(=N)N2 (stereo unspecified) | > 100 µM (inactive) | > 100 µM (inactive) | > 100 µM (inactive) | > 100 µM (inactive) | > 100 µM (inactive) | > 100 µM (inactive) | – | – | > 100 µM (inactive) | > 100 µM (inactive) | > 100 µM (inactive) | – | > 100 µM (inactive) | > 100 µM (inactive) | > 100 µM (inactive) | > 100 µM (inactive) | > 100 µM (inactive) | > 100 µM (inactive) | > 100 µM (inactive) | > 100 µM (inactive)
C=CCOCn1ccc(N)nc1=O | – | > 100 µM (inactive) | > 100 µM (inactive) | > 100 µM (inactive) | > 100 µM (inactive) | > 100 µM (inactive) | – | – | > 100 µM (inactive) | > 100 µM (inactive) | > 100 µM (inactive) | – | > 100 µM (inactive) | > 100 µM (inactive) | > 100 µM (inactive) | > 100 µM (inactive) | > 100 µM (inactive) | > 100 µM (inactive) | > 100 µM (inactive) | –
O=C(/C=C1\N=C(c2ccccc2)N(c2ccc3c(c2)Sc2cc(N4C(=O)/C(=C/C(=O)/C=C/c5ccccc5)N=C4c4ccccc4)ccc2N3)C1=O)/C=C/c1ccccc1 | > 100 µM (inactive) | 42.6 µM (inactive) | > 100 µM (inactive) | > 100 µM (inactive) | 23.9 µM (inactive) | 41.4 µM (inactive) | 20.8 µM (inactive) | 22.4 µM (inactive) | 19.5 µM (inactive) | – | 65.2 µM (inactive) | 18.4 µM (inactive) | 18.7 µM (inactive) | 36.8 µM (inactive) | 29.7 µM (inactive) | 67.6 µM (inactive) | 45.1 µM (inactive) | 81.1 µM (inactive) | 30.8 µM (inactive) | 27.9 µM (inactive)
C(/Cc1ccc2c(c1)OCO2)=N\N=C1NCCN1 | > 100 µM (inactive) | – | 58.9 µM (inactive) | 57.9 µM (inactive) | > 100 µM (inactive) | 52.6 µM (inactive) | > 100 µM (inactive) | 57.3 µM (inactive) | 71.3 µM (inactive) | 79.3 µM (inactive) | > 100 µM (inactive) | > 100 µM (inactive) | 47.3 µM (inactive) | 84.7 µM (inactive) | > 100 µM (inactive) | > 100 µM (inactive) | 61.7 µM (inactive) | 42.1 µM (inactive) | 43.2 µM (inactive) | 18.8 µM (inactive)
CCOC(=O)CN1C(=O)c2ccc(NC(=O)C(=O)O)cc2S1(=O)=O | > 100 µM (inactive) | > 100 µM (inactive) | > 100 µM (inactive) | > 100 µM (inactive) | > 100 µM (inactive) | > 100 µM (inactive) | > 100 µM (inactive) | > 100 µM (inactive) | > 100 µM (inactive) | – | > 100 µM (inactive) | > 100 µM (inactive) | > 100 µM (inactive) | > 100 µM (inactive) | > 100 µM (inactive) | > 100 µM (inactive) | > 100 µM (inactive) | > 100 µM (inactive) | > 100 µM (inactive) | > 100 µM (inactive)
CCCCCCNC(=O)c1cc(NCc2cc(OC)ccc2OC)ccc1O | 32.8 µM (inactive) | 27.2 µM (inactive) | 21.1 µM (inactive) | 31.3 µM (inactive) | 22.1 µM (inactive) | 25.7 µM (inactive) | 22.8 µM (inactive) | 51.4 µM (inactive) | 20.2 µM (inactive) | 18.5 µM (inactive) | 31.8 µM (inactive) | 21.7 µM (inactive) | 14.5 µM (inactive) | 20.6 µM (inactive) | 33 µM (inactive) | 30.7 µM (inactive) | 42.6 µM (inactive) | 17.7 µM (inactive) | 14.8 µM (inactive) | –
COc1ccc(Nc2nc3cc(C(F)(F)F)ccc3nc2C(=O)O)cc1 | 28.3 µM (inactive) | 33.2 µM (inactive) | 15.5 µM (inactive) | 30.3 µM (inactive) | 20.9 µM (inactive) | 7.87 µM (inactive) | 27.3 µM (inactive) | 24.2 µM (inactive) | 20.4 µM (inactive) | – | 31.7 µM (inactive) | 14.5 µM (inactive) | 16.7 µM (inactive) | 27 µM (inactive) | 16 µM (inactive) | 21.6 µM (inactive) | 34.4 µM (inactive) | 13.6 µM (inactive) | 15.2 µM (inactive) | 15.1 µM (inactive)
O=C(O)CNC(=O)CO/N=C1/C(=C2/C(=O)Nc3ccccc32)Nc2ccccc21 | > 100 µM (inactive) | 28.1 µM (inactive) | > 100 µM (inactive) | > 100 µM (inactive) | 72.4 µM (inactive) | 70.3 µM (inactive) | > 100 µM (inactive) | > 100 µM (inactive) | 60.8 µM (inactive) | > 100 µM (inactive) | > 100 µM (inactive) | > 100 µM (inactive) | 54.2 µM (inactive) | > 100 µM (inactive) | 70.5 µM (inactive) | > 100 µM (inactive) | > 100 µM (inactive) | 26.5 µM (inactive) | > 100 µM (inactive) | –
CCOC(=O)c1nc2ccccc2nc1Oc1cc(OC)cc(OC)c1 | > 100 µM (inactive) | – | > 100 µM (inactive) | > 100 µM (inactive) | > 100 µM (inactive) | > 100 µM (inactive) | 8.49 µM (inactive) | > 100 µM (inactive) | > 100 µM (inactive) | 61.7 µM (inactive) | > 100 µM (inactive) | > 100 µM (inactive) | > 100 µM (inactive) | > 100 µM (inactive) | > 100 µM (inactive) | > 100 µM (inactive) | > 100 µM (inactive) | > 100 µM (inactive) | > 100 µM (inactive) | > 100 µM (inactive)
CC(=O)OCC1OC(O[C@@H]2c3c(O)c4c(c(O)c3C3=C(NN(c5ccc([N+](=O)[O-])cc5[N+](=O)[O-])[Se]3=O)[C@@]2(C)O)C(=O)c2ccccc2C4=O)C(OC(C)=O)C(OC(C)=O)C1OC(C)=O (stereo partly specified) | 0.222 µM (active) | 0.274 µM (active) | 0.141 µM (active) | 0.239 µM (active) | 0.207 µM (active) | 0.0345 µM (active) | 0.201 µM (active) | 0.51 µM (active) | 0.261 µM (active) | – | 0.242 µM (active) | 0.212 µM (active) | 0.2 µM (active) | 0.157 µM (active) | 0.323 µM (active) | 0.101 µM (active) | 0.497 µM (active) | 0.239 µM (active) | 0.118 µM (active) | 0.288 µM (active)
O=C1CCc2cc3c(cc21)C(C(=O)O)CC3 (stereo unspecified) | > 100 µM (inactive) | > 100 µM (inactive) | > 100 µM (inactive) | > 100 µM (inactive) | > 100 µM (inactive) | > 100 µM (inactive) | > 100 µM (inactive) | > 100 µM (inactive) | > 100 µM (inactive) | > 100 µM (inactive) | > 100 µM (inactive) | > 100 µM (inactive) | > 100 µM (inactive) | > 100 µM (inactive) | > 100 µM (inactive) | > 100 µM (inactive) | > 100 µM (inactive) | > 100 µM (inactive) | > 100 µM (inactive) | –
CCN(CC)CCC(=O)c1ccc(Cl)c(Cl)c1 | 76.9 µM (inactive) | – | 27.5 µM (inactive) | 32.3 µM (inactive) | 12.8 µM (inactive) | 19.9 µM (inactive) | 47.4 µM (inactive) | > 100 µM (inactive) | 32.1 µM (inactive) | > 10 µM (inactive) | 16.6 µM (inactive) | – | 20.1 µM (inactive) | 39.3 µM (inactive) | > 100 µM (inactive) | 19.7 µM (inactive) | > 10 µM (inactive) | 41.3 µM (inactive) | 24.8 µM (inactive) | 18.5 µM (inactive)
